This passage reports Ki and EC50 results from patent US11161850B2, “Fused pyrazine derivatives as A2A / A2B inhibitors” (Incyte Corporation, priority 2018, dated 2021).

In test [1] the target is Adenosine A2A (Homo sapiens (Human), UniProt P29274). Description: A2A Tag-Lite HTRF assay. The test is classed as binding. The source says: Example C. A2A Tag-Lite® HTRF Assay
On the technique in general: Time-resolved FRET reads energy transfer from a long-lived donor to a nearby acceptor.

Test [2] addresses human adenosine A2B receptor (Homo sapiens (Human), UniProt P29275). Description: Adenosine A2B Receptor Cyclic AMP GS Assay. The format is cell-based. To be noted: A2B_cAMP_EC50 (nM), HEK-293 cells expressing human A2B, agonist NECA 12 nM. The gist of the method:
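Stably transfected HEK-293 cells were preincubated with compound for 30 min at room temperature, then stimulated with 12 nM NECA for 60 min. cAMP accumulation was read by FRET (665/620 ratio), and EC50 was fitted from percent of control versus log compound concentration.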

[3] abbreviates: Tag-Lite Adenosine A2A labeled cells, fluorescent ligand 12.5 nM, read-out: A2A_Ki.

Structures are written as SMILES. Like-named read-outs stand apart in the source and are kept apart here.

Sequence of human adenosine A2B receptor (P29275 whole entry): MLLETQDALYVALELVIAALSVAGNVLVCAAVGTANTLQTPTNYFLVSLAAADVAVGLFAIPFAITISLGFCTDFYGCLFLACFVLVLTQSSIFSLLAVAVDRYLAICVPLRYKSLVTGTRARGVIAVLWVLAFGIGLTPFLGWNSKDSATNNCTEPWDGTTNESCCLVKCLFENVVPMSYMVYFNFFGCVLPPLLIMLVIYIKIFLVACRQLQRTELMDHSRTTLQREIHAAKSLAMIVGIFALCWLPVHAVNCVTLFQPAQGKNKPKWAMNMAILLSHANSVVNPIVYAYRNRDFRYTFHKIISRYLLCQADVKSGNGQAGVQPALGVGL
Sequence of Adenosine A2A (P29274 whole entry): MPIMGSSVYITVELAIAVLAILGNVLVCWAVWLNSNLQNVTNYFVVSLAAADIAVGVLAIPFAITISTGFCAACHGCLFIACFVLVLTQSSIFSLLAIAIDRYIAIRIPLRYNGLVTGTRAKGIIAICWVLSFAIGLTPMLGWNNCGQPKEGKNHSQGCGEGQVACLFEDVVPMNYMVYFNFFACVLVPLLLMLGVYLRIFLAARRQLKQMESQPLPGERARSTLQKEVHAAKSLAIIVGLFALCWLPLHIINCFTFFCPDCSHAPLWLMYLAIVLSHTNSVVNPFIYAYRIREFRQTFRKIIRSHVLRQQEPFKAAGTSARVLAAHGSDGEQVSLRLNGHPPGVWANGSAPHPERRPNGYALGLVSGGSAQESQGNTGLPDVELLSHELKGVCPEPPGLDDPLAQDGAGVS

By EC50 is commonly meant the midpoint of the concentration-response curve. Higher therefore signals a need for much substance. With `Cc1cccnc1COc1nc2c(N)nc(-c3cccc(C#N)c3)c(-c3ccncn3)n2n1` [Example 119, 3-(8-amino-2-((3-methylpyridin-2-yl)methoxy)-5-(pyrimidin-4-yl)-[1,2,4]triazolo[1,5-a]pyrazin-6-yl)benzonitrile], the Ki in test [1] (setting [3]) is less than 10 nM. For the same molecule, the EC50 in test [2] was less than 10 nM.
Consider `N#Cc1cccc(-c2cn3nc(Cc4ncccc4Nc4cnn(Cc5ccncc5)c4)nc3c(N)n2)c1F` [Example 120, 3-(8-Amino-2-((3-((1-(pyridin-4-ylmethyl)-1H-pyrazol-4-yl)amino)pyridin-2-yl)methyl)-[1,2,4]triazolo[1,5-a]pyrazin-6-yl)-2-fluorobenzonitrile], for which the Ki in test [1] (setting [3]) is less than 10 nM. Further, in test [2], the EC50 fell in the range of 10 to 100 nM.
For the molecule `N#Cc1cccc(-c2cn3nc(Cc4ncccc4Nc4cnn(C5CCOCC5)c4)nc3c(N)n2)c1F` [Example 121, 3-(8-amino-2-((3-((1-(tetrahydro-2H-pyran-4-yl)-1H-pyrazol-4-yl)amino)pyridin-2-yl)methyl)-[1,2,4]triazolo[1,5-a]pyrazin-6-yl)-2-fluorobenzonitrile], the Ki in test [1] (setting [3]) is less than 10 nM. The molecule also yielded an EC50 in test [2] of 10 to 100 nM.
For `Cn1cc(-c2cccnc2Cc2nc3c(N)nc(-c4cccc(C#N)c4)c(-c4ccncn4)n3n2)cn1` [Example 122, 3-(8-Amino-2-((3-(1-methyl-1H-pyrazol-4-yl)pyridin-2-yl)methyl)-5-(pyrimidin-4-yl)-[1,2,4]triazolo[1,5-a]pyrazin-6-yl)benzonitrile], the Ki in test [1] (setting [3]) is less than 10 nM. This molecule yielded an EC50 in test [2] of 10 to 100 nM.
`N#Cc1cccc(-c2nc(N)c3nc(Cc4ccccc4CN4CC[C@H](O)C4)nn3c2-c2ccncn2)c1` [Example 123, (S)-3-(8-Amino-2-(2-((3-hydroxypyrrolidin-1-yl)methyl)benzyl)-5-(pyrimidin-4-yl)-[1,2,4]triazolo[1,5-a]pyrazin-6-yl)benzonitrile]: the Ki in test [1] (setting [3]) is less than 10 nM. The same molecule registered an EC50 in test [2] of 10 to 100 nM.
In the same order, the values of `N#Cc1cccc(-c2nc(N)c3ncnn3c2-c2ccc3nccn3c2)c1` [Example 124, 3-(8-Amino-5-(imidazo[1,2-a]pyridin-6-yl)-[1,2,4]triazolo[1,5-a]pyrazin-6-yl)benzonitrile] are less than 10 nM and less than 10 nM.
For the molecule `N#Cc1cccc(-c2nc(N)c3nc(C(=O)N4CCC4)nn3c2-c2ccncc2F)c1` [Example 125, 3-(8-amino-2-(azetidine-1-carbonyl)-5-(3-fluoropyridin-4-yl)-[1,2,4]triazolo[1,5-a]pyrazin-6-yl)benzonitrile], the Ki in test [1] (setting [3]) is less than 10 nM. In test [2], this molecule came in with an EC50 of 10 to 100 nM.
Take `Cc1cc(-c2c(-c3cccc(C#N)c3F)nc(N)c3nc(C(O)c4c(F)cccc4F)nn23)cc(C)n1` (centres unmarked) [Example 126, 3-(8-amino-2-((2,6-difluorophenyl)(hydroxy)methyl)-5-(2,6-dimethylpyridin-4-yl)-[1,2,4]triazolo[1,5-a]pyrazin-6-yl)-2-fluorobenzonitrile]: the Ki in test [1] (setting [3]) was less than 10 nM. This molecule also showed an EC50 in test [2] of 10 to 100 nM.
In test [1], `[2H]C([2H])([2H])n1nc(-c2c(-c3cccc(C#N)c3)nc(N)c3nc(Cc4ccccn4)nn23)ccc1=O` [Example 127, 3-(8-amino-5-(1-(methyl-d3)-6-oxo-1,6-dihydropyridazin-3-yl)-2-(pyridin-2-ylmethyl)-[1,2,4]triazolo[1,5-a]pyrazin-6-yl)benzonitrile] had a Ki of less than 10 nM. Besides, in test [2], the EC50 was less than 10 nM.
For `COc1cccc(Cc2nc3c(N)nc(-c4cccc(C#N)c4)c(-c4ccc(=O)n(C)n4)n3n2)n1` [Example 128, 3-(8-amino-2-((6-methoxypyridin-2-yl)methyl)-5-(1-methyl-6-oxo-1,6-dihydropyridazin-3-yl)-[1,2,4]triazolo[1,5-a]pyrazin-6-yl)benzonitrile], the Ki in test [1] (setting [3]) was less than 10 nM. This molecule also had an EC50 in test [2] of 10 to 100 nM.
